Broadly, the EC50 is the midpoint of the concentration-response curve.

Test [1] concerns the target Human TRPML1 (Homo sapiens, UniProt Q9GZU1). The experiment in a line: Fluorescent TRPML1 assay (Fluo4 calcium fluorescence, HEK-293 Trex cells). Type of test: cell-based. The settings on record: HEK-293 Trex cells expressing surface-directed hTRPML1, Fluo4 fluorescence. Here is the method:
(§1) HEK-293 Trex cells were stably transfected with a construct consisting of the human coding sequence for TRPML1 cloned into the tet-inducible plasmid pCDNA5 T/O. Mutations were introduced into the TRPML1 sequence to facilitate expression on the cell surface (Silvia Vergarajauregui. Rosa Puertollano Traffic. 2006 March: 7(3): 337-353). Briefly, the cells are cultured in 150 mm round tissue culture dishes containing 20 mL of media. The day before the assay the cells are rinsed with DPBS—Ca —Mg and then treated briefly with Trypsin-EDTA. The Trypsin-EDTA is diluted with growth media, and cells are counted. 38×10^6 cells are re-plated into 150 mm round tissue culture dishes in media containing 0.5 g/mL doxycycline to induce expression of hTRPML1.
(§2) The day of the experiment cells are lifted from the plates as above and collected by centrifugation. The cells are then suspended in dye loading buffer consisting of Ringer's solution supplemented with 0.1% Pluronic Acid and 1 micromolar Fluo4-AM dye. Cells are loaded for ~60 minutes in the dark with occasional mixing. The cells are collected by centrifugation, the loading media aspirated, and the cells resuspended in 25 mL Ringer's solution and incubated ~60 minutes in the dark. The cells are again collected by centrifugation, rinsed in Ringer's Solution and resuspended to 0.2×10^6 cells/mL in modified Ringer's solution containing 10 mM calcium.
(§3) Compounds are dissolved to a concentration of 10 millimolar with DMSO. Compound plates are created by dispensing compounds into 384 well black wall clear bottom plates (Greiner 781091). Positive and negative controls are included on each plate. Typically, different amounts of each compound are tested ranging from 100 nanoMoles (20 micromolar final concentration) decreasing in half-log steps to 31 picoMoles (6 nanomolar final concentration). Each concentration is typically tested in triplicate.
(§4) 50 microliters of dye-loaded cells are dispensed into each well of the compound assay plate created above. The fluorescence in each well is then determined with an excitation wavelength of 480 nm and an emission wavelength of 540 nm using either a Molecular Devices SpectraMax multimode plate reader or a Hamamatsu FDSS/uCell plate imager.
(§5) The resulting fluorescence for each well is exported as an ascii file and loaded into our LIMS for analysis. The percent activity of each compound at each concentration is determined by comparison to the positive and negative control wells included in each plate.
(§6) EC50 values were calculated using a non-linear regression of Prism. In the table, “A” indicates an EC50 of less than 100 nM, “B” indicates an EC50 range from 100 nM to 500 nM; “C” indicates an EC50 range from 500 nM to 2 μM; and “D” indicates an EC50 greater than 2 μM.

The target of test [2] is T1, Human TRPML3 (Homo sapiens, UniProt Q8TDD5).
T1 construct: expressed in transfected cells
T1 sequence (Q8TDD5 1-553): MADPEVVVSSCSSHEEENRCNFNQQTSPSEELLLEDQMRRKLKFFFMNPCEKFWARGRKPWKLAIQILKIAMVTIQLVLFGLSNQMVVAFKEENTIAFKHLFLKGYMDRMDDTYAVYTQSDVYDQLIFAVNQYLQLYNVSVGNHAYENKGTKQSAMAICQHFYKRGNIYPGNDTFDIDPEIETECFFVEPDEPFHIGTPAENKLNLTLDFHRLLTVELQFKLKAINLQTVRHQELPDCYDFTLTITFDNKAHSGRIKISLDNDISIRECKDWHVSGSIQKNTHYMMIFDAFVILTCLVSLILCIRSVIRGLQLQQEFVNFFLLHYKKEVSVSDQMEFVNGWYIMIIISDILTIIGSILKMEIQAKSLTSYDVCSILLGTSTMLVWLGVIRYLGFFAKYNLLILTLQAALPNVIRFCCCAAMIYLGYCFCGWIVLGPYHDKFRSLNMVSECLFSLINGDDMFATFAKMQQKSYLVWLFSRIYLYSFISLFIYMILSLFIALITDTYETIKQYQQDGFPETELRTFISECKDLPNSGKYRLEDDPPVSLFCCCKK
The experiment in a line: Fluorescent TRPML3 assay (as for TRPML1). Type of test: cell-based. The conditions noted are these: as TRPML1 assay with TRPML3 subtype. Here is the method: as §1, §2, §3, §4, §5
Assays for TRPML2 and TRPML3 were performed as above for TRPML1, by substituting the appropriate TRPML2 or TRPML3 subtype for the TRPML1.
as §6

Test [3] relates to TRPMLs. The conditions noted are these: high concentrations needed; background statement; cited from earlier work.
The target in test [4] is T2, Human TRPML2 (Homo sapiens, UniProt Q8IZK6).
T2 construct: expressed in transfected cells
T2 sequence (Q8IZK6 1-566): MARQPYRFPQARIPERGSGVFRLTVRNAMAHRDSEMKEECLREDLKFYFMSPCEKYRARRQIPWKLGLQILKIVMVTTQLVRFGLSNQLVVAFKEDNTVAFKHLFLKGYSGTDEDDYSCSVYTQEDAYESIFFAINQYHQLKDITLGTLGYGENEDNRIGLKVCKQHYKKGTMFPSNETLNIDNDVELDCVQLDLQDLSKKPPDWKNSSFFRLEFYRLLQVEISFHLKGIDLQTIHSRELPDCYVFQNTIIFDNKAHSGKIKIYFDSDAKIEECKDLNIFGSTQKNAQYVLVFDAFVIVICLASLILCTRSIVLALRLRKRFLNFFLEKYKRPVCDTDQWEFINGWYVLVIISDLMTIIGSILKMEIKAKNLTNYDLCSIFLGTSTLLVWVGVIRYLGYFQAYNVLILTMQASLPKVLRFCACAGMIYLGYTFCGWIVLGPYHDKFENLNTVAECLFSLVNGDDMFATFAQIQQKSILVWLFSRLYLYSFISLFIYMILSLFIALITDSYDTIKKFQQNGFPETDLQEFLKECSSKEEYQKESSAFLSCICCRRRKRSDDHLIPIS
Put plainly: Fluorescent TRPML2 assay (as for TRPML1). Type of test: cell-based. The settings on record: as TRPML1 assay with TRPML2 subtype. On the procedure:
as §1, with “38×10^6 cells are re-plated into 150 mm round tissue culture dishes in media containing 0.5 g/mL doxycycline to induce expression of hTRPML1.” left out
as §4
The resulting fluorescence for each well is exported as an ascii file and loaded into our LIMS for analysis. The percent activity of each compound at each concentration is determined by comparison to the positive and negative control wells included in each plate. […]
EC50 values were calculated using a non-linear regression of Prism. […]

Molecules are shown by their SMILES.

Chain of Human TRPML1 (Q9GZU1 whole entry L15A/L16A/L577A/L578A, form open): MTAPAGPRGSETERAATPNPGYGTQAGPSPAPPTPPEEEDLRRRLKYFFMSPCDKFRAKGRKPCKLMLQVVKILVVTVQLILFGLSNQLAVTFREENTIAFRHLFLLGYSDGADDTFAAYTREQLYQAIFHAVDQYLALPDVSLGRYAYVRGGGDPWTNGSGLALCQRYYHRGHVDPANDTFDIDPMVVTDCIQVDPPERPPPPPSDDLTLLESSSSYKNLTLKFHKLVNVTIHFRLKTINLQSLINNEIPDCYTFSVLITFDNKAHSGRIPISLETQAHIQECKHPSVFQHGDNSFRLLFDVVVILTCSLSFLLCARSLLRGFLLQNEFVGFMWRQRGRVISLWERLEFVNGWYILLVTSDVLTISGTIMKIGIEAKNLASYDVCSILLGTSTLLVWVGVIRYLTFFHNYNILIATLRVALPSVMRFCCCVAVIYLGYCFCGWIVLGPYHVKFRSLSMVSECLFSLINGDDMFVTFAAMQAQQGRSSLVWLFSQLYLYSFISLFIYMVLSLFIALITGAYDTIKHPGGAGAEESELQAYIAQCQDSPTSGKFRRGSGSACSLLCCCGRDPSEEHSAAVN

As for `C[C@@H]1CN(c2ncnc3c2c(-c2ccccc2F)cn3-c2cccc(Cl)c2)[C@@H](C)CN1C(=O)C(C)(C)O` [Compound 105, 1-((2R,5S)-4-(7-(3-chlorophenyl)-5-(2-fluorophenyl)-7H-pyrrolo[2,3-d]pyrimidin-4-yl)-2,5-dimethylpiperazin-1-yl)-2-hydroxy-2-methylpropan-1-one], the 50% effective concentration (EC50) in test [1] was 100 to 500 nM; in test [2], 500 to 2000 nM.

In the case of `C[C@@H]1CN(c2ncnc3c2c(-c2ccccc2F)cn3-c2cccc(C#N)c2)[C@@H](C)CN1C(=O)C(C)(C)O` [Compound 102, 3-(5-(2-fluorophenyl)-4-((25,5R)-4-(2-hydroxy-2-methylpropanoyl)-2,5-dimethylpiperazin-1-yl)-7H-pyrrolo[2,3-d]pyrimidin-7-yl)benzonitrile], the values for the EC50 in test [1] and in test [2] were 100 to 500 nM and greater than 2000 nM, respectively.

In the case of `CC1CC(C)(C)N(C(=O)CN2C(=O)c3ccccc3C2=O)c2ccccc21` (stereo not drawn) [ML-SA1], the “Concentration needed to effectively activate TRPMLs” value in test [3] is listed as ~ 10 μM.

For the compound `C[C@@H]1CN(c2ncnc3c2c(-c2ccccc2F)cn3-c2cc(F)cc(F)c2)[C@@H](C)CN1C(=O)C(C)(C)O` [Compound 104, 1-((2R,5S)-4-(7-(3,5-difluorophenyl)-5-(2-fluorophenyl)-7H-pyrrolo[2,3-d]pyrimidin-4-yl)-2,5-dimethylpiperazin-1-yl)-2-hydroxy-2-methylpropan-1-one], the EC50 in test [1] was 500 to 2000 nM; in test [2] it was greater than 2000 nM.

Consider `COC(C)(C)C(=O)N1C[C@H](C)N(c2ncnc3c2c(-c2ccccc2F)cn3-c2cccc(F)c2)C[C@H]1C` [Compound 103, 1-((2R,5S)-4-(5-(2-fluorophenyl)-7-(3-fluorophenyl)-7H-pyrrolo[2,3-d]pyrimidin-4-yl)-2,5-dimethylpiperazin-1-yl)-2-methoxy-2-methylpropan-1-one], for which the EC50 in test [1] was less than 100 nM; in test [4] it was 100 to 500 nM; in test [2], less than 100 nM.

For `C[C@@H]1CN(c2ncnc3c2c(-c2ccccc2)cn3-c2cccc(C#N)c2)[C@@H](C)CN1C(=O)C(C)(C)O` [Compound 101, 3-(4-((2S,5R)-4-(2-hydroxy-2-methylpropanoyl)-2,5-dimethylpiperazin-1-yl)-5-phenyl-7H-pyrrolo[2,3-d]pyrimidin-7-yl)benzonitrile], the EC50 was 100 to 500 nM in test [1] and greater than 2000 nM in test [2].
